Entries after “also recorded” stand apart in the source; their conditions may differ.
Assay: Glucose tolerance test
Format: in vivo, mice
Conditions: for response to glucose challenge / glucose intolerance: WT mice exposed to stress and high-fat diet, FIG. 18A
Experimental: Glucose tolerance test: After an overnight 17 h fast, unanesthetized mice are injected i.p. with a dose of 1.5 g of 50% glucose solution per kg of body weight. Blood samples are obtained from the tail vein 30 min prior to the glucose challenge and then again at 0, 30, 60, 90 min after the glucose challenge. Blood glucose concentrations are measured with an Elite XL (Bayer) portable glucose meter.
1. Cell culture: 3T3-L1 preadipocyte cells, (gift from Dr. Lane,^34) were cultured in DMEM high glucose media with glutamine, 10% calf sera (Gemini Bioproducts), d-Biotin (8 μg/ml) and Pantothenate (8 μg/ml) (Sigma). SK-N-BE(2) neuroblastoma cells (ATCC) were cultured in EMEM/F12K with 10% fetal bovine sera (FBS). HMVEC endothelial cells (Cambrex) were cultured in endothelial cell growth media (Cambrex). All media was supplemented with 100 units/ml penicillin, 100 μg/ml streptomycin and […] amphotericin. 2. Proliferation assay: Cells were plated onto 96-well dishes, growth-arrested in serum-free media for 24 h, and then were treated with the desired factors for 24 h in the culture media supplemented with 0.25% FBS; 4 hr after treatment 0.5 μCi [^3H] thymidine was added to each well. After 24 h, cells were harvested in a 96-well harvester (Tomtec) and counted in a Betaplate Liquid Scintillation Counter (Wallac). 3. Co-culture: For mitogenic assay and expression studies, co-culture was performed in a Costar Transwell system. Cells were plated on 6-well plates or inserts with 0.4 μm Polyester membranes. At 30% confluence, the inserts were combined with wells containing other cells. […] After 48 hr, the cells were counted with a Beckman Coulter Counter. […] The results were analyzed using software provided by BioRad and expression levels calculated by the comparative CT method using β-actin as an endogenous reference gene, according to the Applied Biosystems' ABI PRISM 7700 User Bulletin #2. […] The density of TUNEL positive cells will be measured using NIH ImageJ software (using a plugin written by Wayne Rasband). […]

SMILES: N=C(N)NCCC[C@H](NC(=O)CC1(CC(=O)N2CCN(C3c4ccccc4NC(=O)c4ccccc43)CC2)CCCC1)C(=O)NCCn1c(=O)n(-c2ccccc2)n(-c2ccccc2)c1=O (stereo partly drawn) [BIIE0246]
- response to glucose challenge / glucose intolerance (listed as Y2R antagonist): resolved
- response to glucose challenge / glucose intolerance (listed as Y2 antagonist): normalized glucose intolerance
- response to glucose challenge (ob/ob mice, FIG. 18B, listed as Y2R antagonist): near normal response to the challenge; also recorded: resolved

Source: patent publication US20090317376A1, “Compositions And Methods For Lipo Modeling” (Georgetown University MEDICAL SCHOOL, priority 2005, published 2009)
